Experimental data as given in patent US20040242452A1, “Perfume composition” (priority 2001, published 2004).
“Also recorded” adds a separate entry of the source.

Columns and labels:
healthy female panelists [1] = assay: CNV test (contingent negative variation) with inhaled scent samples; assay type: in vivo, human; settings: for psycho-sedative / psycho-stimulative effect by measured CNV values (FIG. 1): scent inhaled about 10 cm under the nose, five healthy female panelists, CNV area relative to blank (100%): 100% or less sedative, 100% or more arousal
Excerpt: The psycho-sedative effect was investigated by measuring negative changes in electric potential, so-called contingent negative variation (CNV). CNV is known to be a slow cerebral potential variation which relates to psychological processes such as alertness, expectation, and anticipation and to changes in the level of consciousness.
In order to screen out a compound having a psycho-sedative or psycho-stimulative effect, a light signal which indicates start of movement is emitted two seconds after stimulation with a warning sound, and a panelist is required to react (i.e., push a button) simultaneously with the recognition of the light. During repetition of a series of such processes, an aromatic product sample is arranged about 10 cm under the nose of the panelist so that its scent can be acknowledged with breathing. An electrode for the measurement of CNV is set on the forehead of the panelist so as to record electric potential between the forehead and an earlobe. It has already been reported that the CNV amplitude increases when caffeine having an arousal effect is perorally administered to humans, whereas the amplitude decreases when nitrazepam having a sedative effect is allowed to be […].
In this test, the psycho-sedative effect was evaluated by use of the percentage as an index. A relative area of 100% or less indicates a sedative effect, and a relative area of 100% or more indicates an arousal effect.
Five healthy female panelists were subjected to the aforementioned CNV test.
Five healthy female adult panelists were subjected to the aforementioned CNV test.
(B) The following samples were prepared: a 1% ethanol solution of perilla aldehyde (commercial product); a 1% ethanol solution of perilla alcohol (commercial product); a 1% ethanol solution of DMMB (commercial product); and a 1% ethanol solution of lemon oil (commercial product). Five healthy female adult panelists were subjected to the aforementioned CNV test.
The following samples were prepared: a 0.05% ethanol solution of solo perilla aldehyde (1); a 0.05% ethanol solution of solo perilla alcohol (2); and an ethanol solution containing perilla aldehyde (0.05%) and perilla alcohol (0.05%) (3). Five healthy female adult panelists were subjected to the aforementioned CNV test.

healthy female panelists [2] = settings: already reported; humans; caffeine perorally administered, nitrazepam allowed to be inhaled; cited from earlier work
[3] = disclosed in Japanese Patent Application Laid-Open (kokai) No. 6-172781; also through inhalation of vaporized perfume; cited from earlier work
[4] = 1% ethanol solution, five healthy female adult panelists, CNV area relative to blank (100%)

Row | Compound | psycho-sedative / psycho-stimulative effect by measured CNV values (FIG. 1) (healthy female panelists [1]; 1% ethanol solution) | also measured
1 | C=CC(C)(O)CCC=C(C)C (centres unmarked) [linalool] | psycho-sedative effect similar to that of DMMB | 
2 | CC(C)c1ccc(CO)cc1 [cuminyl alcohol, 4-isopropylbenzyl alcohol] |  | psycho-stimulative / psycho-sedative effect by measured CNV values (FIG. 2) (healthy female panelists [1]; [4]): psycho-stimulative effect similar to that of limone oil
3 | CC(C=O)Cc1ccc2c(c1)OCO2 (centres unmarked) [helional] | psycho-sedative effect similar to that of DMMB | 
4 | CCC1CCC(=O)O1 (centres unmarked) [γ-hexalactone] | psycho-sedative effect similar to that of DMMB | 
5 | C=CC(C)=CCC=C(C)C [ocimene] | psycho-sedative effect similar to that of DMMB | 
6 | Cn1c(=O)c2c(ncn2C)n(C)c1=O [caffeine] |  | CNV amplitude change (healthy female panelists [2]): increases
7 | Cc1ccc(CC=O)cc1 [p-methylphenylacetaldehyde] | psycho-sedative effect similar to that of DMMB | 
8 | C=CC(C)(CCC=C(C)C)OC(C)=O (centres unmarked) [linalyl acetate] | psycho-sedative effect similar to that of DMMB | 
9 | CC(=O)OC/C=C(\C)CCC=C(C)C [geranyl acetate] | psycho-sedative effect similar to that of DMMB | 
10 | C/C=C(/C)C(=O)OCCc1ccccc1 [phenylethyl angelate, 2-phenylethyl(Z)-2-methyl-2-butenoate] |  | psycho-stimulative / psycho-sedative effect by measured CNV values (FIG. 2) (healthy female panelists [1]; [4]): psycho-stimulative effect similar to that of limone oil
11 | CC(C)=CCC/C(C)=C\CO [nerol] | psycho-sedative effect similar to that of DMMB | 
12 | C=C(C)C1CC=C(C=O)CC1 (centres unmarked) [perilla aldehyde, dihydrocuminyl aldehyde] |  | synergistic psycho-stimulative effect by measured CNV values (FIG. 4) (healthy female panelists [1]; 0.05% ethanol solution of each component, solo or combined, five healthy female adult panelists): acknowledged to have a psycho-stimulative effect; psycho-stimulative effect by measured CNV values (FIG. 3) (healthy female panelists [1]; [4]): acknowledged to have a psycho-stimulative effect; also recorded: remarkably strong psycho-stimulative effect as compared with lemon oil
13 | CC(C)=CCC/C(C)=C/CO [geraniol] | psycho-sedative effect similar to that of DMMB | 
14 | CC1=C2CCC(C)CC2OC1=O (centres unmarked) [menthalactone, 3,6-dimethyl-5,6,7,7a-tetrahydro-2(4H)-benzofuranone] |  | psycho-stimulative / psycho-sedative effect by measured CNV values (FIG. 2) (healthy female panelists [1]; [4]): psycho-stimulative effect similar to that of limone oil
15 | terpinyl butyrate | psycho-sedative effect similar to that of DMMB | 
16 | COC(=O)c1ccc(OC)cc1 [methyl anisate] | psycho-sedative effect similar to that of DMMB | 
17 | COc1cc(C)cc(OC)c1 [DMMB, 1,3-dimethoxy-5-methylbenzene, reference compound] |  | sedative effect [3]: has a sedative effect; psycho-stimulative / psycho-sedative effect by measured CNV values (FIG. 2) (healthy female panelists [1]; [4]): psycho-sedative effect of DMMB was confirmed

Row | Compound | psycho-sedative / psycho-stimulative effect by measured CNV values (FIG. 1) (healthy female panelists [1]; 1% ethanol solution) | also measured
18 | CC/C=C\CCOC(=O)c1ccccc1O [Z-3-hexenyl salicylate, cis-3-hexenyl salicylate] | psycho-sedative effect similar to that of DMMB | 
19 | OCCc1ccccc1 [β-phenylethyl alcohol] | psycho-sedative effect similar to that of DMMB | 
20 | CCCCCC1CCC(=O)O1 (centres unmarked) [γ-nonalactone] | psycho-sedative effect similar to that of DMMB | 
21 | CC(C)(O)CCCC1=CCC(C=O)CC1 (centres unmarked) [lyral] | psycho-sedative effect similar to that of DMMB | 
22 | CC1=CC(=O)C(C(C)C)CC1 (centres unmarked) [piperitone, p-menth-1-en-3-one] |  | psycho-stimulative / psycho-sedative effect by measured CNV values (FIG. 2) (healthy female panelists [1]; [4]): psycho-stimulative effect similar to that of limone oil
23 | CC(=O)/C(C)=C/C1C(C)=CCCC1(C)C (centres unmarked) [γ-methyl ionone] | psycho-sedative effect similar to that of DMMB | 
24 | CC(=O)C1(C)CC2=C(CCCC2(C)C)CC1C (centres unmarked) [Iso E Super] | psycho-sedative effect similar to that of DMMB | 
25 | C/C=C(/C)C(=O)OCCC(C)C [isoamyl angelate, isoamyl(Z)-2-methyl-2-butenoate] |  | psycho-stimulative / psycho-sedative effect by measured CNV values (FIG. 2) (healthy female panelists [1]; [4]): psycho-stimulative effect similar to that of limone oil
26 | CC(C=O)Cc1ccc(C(C)(C)C)cc1 (centres unmarked) [lilial] | psycho-sedative effect similar to that of DMMB | 
27 | C=C(C)[C@H]1CC=C(C)CC1 [limonene] | psycho-sedative effect similar to that of DMMB | 
28 | CC1=CCC2C(=O)C1C2(C)C (centres unmarked) [chrysanthenone] | psycho-sedative effect similar to that of DMMB | 
29 | CCCCCCCCCCCCCC(=O)OCC [ethyl myristate, ethyl tetradecanoate] |  | psycho-stimulative / psycho-sedative effect by measured CNV values (FIG. 2) (healthy female panelists [1]; [4]): psycho-stimulative effect similar to that of limone oil
30 | CC=Cc1ccc(OC(C)=O)c(OC)c1 [acetyl isoeugenol, methoxy-4-acetoxypropenylbenzene] | psycho-sedative effect similar to that of DMMB | 
31 | CC(C)=CCCC(C)CCO (centres unmarked) [citronellol] | psycho-sedative effect similar to that of DMMB | 
32 | O=C1CN=C(c2ccccc2)c2cc([N+](=O)[O-])ccc2N1 [nitrazepam] |  | CNV amplitude change (healthy female panelists [2]): decreases
33 | CCCCCC1C(=O)CCC1CC(=O)OC (centres unmarked) [hedione, methyl dihydrojasmonate] | psycho-sedative effect similar to that of DMMB | 
